Experimental data: patent US20250281453A1, “COMBINATION THERAPIES COMPRISING QTX125” (QUIMATRYX, S.L., priority 2022, published 2025)

Key:
Assay in all cases: QTX125-containing combination therapy, hexosaminidase cell viability
Type in all cases: cell-based
[1] = test system: Hep-G2 hepatic cancer cells; conditions: for combination index (C.I): Hep-G2; for EC50: Homo sapiens, HepG2, Hep-G2
Procedure: (§1) To assess the oncolytic efficacy of QTX125-containing combination therapies in vitro, colonic, pancreatic, hepatic and ovarian tumour cells were administered sorafenib, gemcitabine or bortezomib at EC25, EC50 and EC75 doses. QTX125 was co-administered in order to produce a dose response curve.
(§2) To prepare cells for viability assays, cells were transferred into 96 well tissue culture plates (Cultek), and resuspended in 100 µL at the following densities: 10,000 cells/well (Hep-G2 and MiaPaCa-2), 5000 cells/well (Panc-1 and SK-OV-3) or 3000 cells/well (HCT-116). Following 24 hours of incubation, media was removed and replaced with 100 µL media spiked with QTX125 and the test chemotherapeutic agents. Stock solutions for the agents used in this study are shown below in Table 1. Cells were incubated for a further 72 hours before cell viability was assessed using both ALAMAR® and hexosaminidase assays.
(§3) For the hexosaminidase assay, media containing QTX125 and the test chemotherapeutic agents was removed, and cells were washed once with PBS. 60 μL of substrate solution (containing: 7.5 mM p-nitrophenol-N-acetyl-beta-D-glucosamide [Sigma N-9376], 0.1 M sodium citrate, pH 5.0 and 0.25% Triton X-100) was added to each well and cells were incubated at 37° C. for at least 1 hour. Incubating cells in this manner causes the substrate solution to become bright yellow, at which point 90 μL of developer solution (containing 50 mM Glycine pH 10.4 and 5 mM EDTA) was added to each well. Absorbance at 410 nm was recorded using a plate reader.
(§4) Control values were normalised to 100% and percentage (%) viability was calculated. Data were used to plot log dose-response curves using a sigmoid dose-response (variable slope) equation. EC50 values were obtained using Equation 1, where ‘X’ is the logarithmic concentration; ‘Y’ is the response output and it is assumed that Y starts at bottom of the graph and reaches the top with an overall sigmoid shape.
(§5) Cls were obtained using Equation 2, where (Dm) 1 is the ECx concentration of QTX125 and (D) 1 is the ECx concentration of QTX125 in the presence of sorafenib, gemcitabine or bortezomib.
(§6) In order to assess the oncolytic efficacy of QTX125-containing combination therapies, monotherapy EC25, EC50 and EC75 doses for sorafenib, gemcitabine and bortezomib were calculated (as per Experiment 3) and administered to wells at these fixed concentrations. QTX125 was co-administered at a range of concentrations, in order to plot a dose-response curve such that the EC50 dose of QTX125 could be calculated in the presence of sorafenib/gemcitabine/bortezomib. QTX125 was administered to cells at a starting high-dose, and a 1:1 dilution was completed thereafter. In this part of the study, only the hexosaminidase assay was employed to assess cell viability following treatment with QTX125-containing combination therapies.
(§7) It should be noted that it was not possible to determine the appropriate concentrations for gemcitabine in all cell lines tested. In cells resistant to gemcitabine, nominal concentrations were used in place of EC25, EC50 and EC75 doses (e.g., nominal doses of 1, 10 and 100 µM were used in Panc-1 and Hep-G2 cells).

[2] = test system: MiaPaCa-2 pancreatic cancer cells; conditions: for EC50: Homo sapiens, MIA PaCa-2, MiaPaCa-2; for combination index (C.I.): MiaPaCa-2
Procedure: as §1, §2, §3, §4, §5, §6, §7

[3] = test system: SK-OV-3 ovarian cancer cells; conditions: for EC50: Homo sapiens, SK-OV-3, SK-Ov-3; for combination index (C.I): SK-Ov-3
Procedure: as §1, §2, §3, §4, §5, §6, §7

[4] = test system: HCT-116 colonic cancer cells; conditions: for combination index (C.I.): HCT-116; for EC50: Homo sapiens, HCT-116, HCT-116
Procedure: as §1, §2, §3, §4, §5, §6, §7

[5] = + bortezomib at EC25 dose (0.014 μM)
[6] = + bortezomib at EC50 dose (0.016 μM)
[7] = + bortezomib at EC75 dose (0.026 μM)
[8] = + gemcitabine at EC25, nominal dose 1 μM
[9] = + gemcitabine at EC50, nominal dose 10 μM
[10] = + gemcitabine at EC75, nominal dose 100 μM
[11] = + sorafenib at EC25 dose (0.9 μM)
[12] = + sorafenib at EC50 dose (2.5 μM)
[13] = + sorafenib at EC75 dose (6.4 μM)
[14] = + bortezomib at EC25 dose (0.007 μM)
[15] = + bortezomib at EC50 dose (0.009 μM)
[16] = + bortezomib at EC75 dose (0.014 μM)
[17] = + gemcitabine at EC25 dose (0.01 μM)
[18] = + gemcitabine at EC50 dose (0.1 μM)
[19] = + gemcitabine at EC75 dose (1 μM)
[20] = + sorafenib at EC25 dose (4.2 μM)
[21] = + sorafenib at EC50 dose (6.8 μM)
[22] = + sorafenib at EC75 dose (10.3 μM)
[23] = + bortezomib at EC25 dose (0.006 μM)
[24] = + bortezomib at EC50 dose (0.007 μM)
[25] = + bortezomib at EC75 dose (0.012 μM)
[26] = + gemcitabine at EC25 dose (0.1 μM)
[27] = + gemcitabine at EC50 dose (0.25 μM)
[28] = + gemcitabine at EC75 dose (0.5 μM)
[29] = + sorafenib at EC25 dose (9.1 μM)
[30] = + sorafenib at EC50 dose (12.7 μM)
[31] = + sorafenib at EC75 dose (21.6 μM)
[32] = + bortezomib at EC25 dose (0.005 μM)
[33] = + bortezomib at EC75 dose (0.01 μM)
[34] = + gemcitabine at EC25 dose (0.001 μM)
[35] = + sorafenib at EC25 dose (2 μM)
[36] = + sorafenib at EC50 dose (3.6 μM)
[37] = + sorafenib at EC75 dose (6.5 μM)

Compound: O=C(NO)c1ccc(CNC(=O)c2[nH]c(-c3ccc(O)cc3)cc2-c2ccoc2)cc1 [QTX125, 3-(3-Furyl)-N-{4-[(hydroxyamino)carbonyl]benzyl}-5-(4-hydroxyphenyl)-1 Hpyrrole-2-carboxamide]
- combination index (C.I) [1, 5]: 0.4 arbitrary units
- combination index (C.I) [1, 6]: 0.2 arbitrary units
- combination index (C.I) [1, 7]: 0.2 arbitrary units
- combination index (C.I) [1, 8]: 0.6 arbitrary units
- combination index (C.I) [1, 9]: 0.2 arbitrary units
- combination index (C.I) [1, 10]: 0.05 arbitrary units
- combination index (C.I) [1, 11]: 0.5 arbitrary units
- combination index (C.I) [1, 12]: 0.4 arbitrary units
- combination index (C.I) [1, 13]: 0.5 arbitrary units
- EC50 [1, 5]: 237 nM
- EC50 [1, 6]: 128 nM
- EC50 [1, 7]: 91 nM
- EC50 [1, 8]: 744 nM
- EC50 [1, 9]: 198 nM
- EC50 [1, 10]: 56.1 nM
- EC50 [1, 11]: 87.9 nM
- EC50 [1, 12]: 74.9 nM
- EC50 [1, 13]: 87.2 nM
- EC50 ([1]; no second agent (control of Table 5.3.1)): 189 nM
- EC50 ([1]; no second agent (control of Table 5.3.2)): 1200 nM
- EC50 ([1]; no second agent (control of Table 5.3.3)): 544 nM
- EC50 [2, 14]: 239 nM
- EC50 [2, 15]: 239 nM
- EC50 [2, 16]: 246 nM
- EC50 [2, 17]: 133 nM
- EC50 [2, 18]: 112 nM
- EC50 [2, 19]: 45.6 nM
- EC50 [2, 20]: 258 nM
- EC50 [2, 21]: 279 nM
- EC50 [2, 22]: 260 nM
- EC50 ([2]; no second agent (control of Table 5.2.1)): 214 nM
- EC50 ([2]; no second agent (control of Table 5.2.2)): 146 nM
- EC50 ([2]; no second agent (control of Table 5.2.3)): 230 nM
- combination index (C.I.) [2, 14]: 1.0 arbitrary units
- combination index (C.I.) [2, 15]: 1.0 arbitrary units
- combination index (C.I.) [2, 16]: 1.1 arbitrary units
- combination index (C.I.) [2, 17]: 0.9 arbitrary units
- combination index (C.I.) [2, 18]: 0.8 arbitrary units
- combination index (C.I.) [2, 19]: 0.3 arbitrary units
- combination index (C.I.) [2, 20]: 1.2 arbitrary units
- combination index (C.I.) [2, 21]: 1.3 arbitrary units
- combination index (C.I.) [2, 22]: 1.2 arbitrary units
- EC50 [3, 23]: 532 nM
- EC50 [3, 24]: 580 nM
- EC50 [3, 25]: 262 nM
- EC50 [3, 26]: 171 nM
- EC50 [3, 27]: 303 nM
- EC50 [3, 28]: 139 nM
- EC50 [3, 29]: 389 nM
- EC50 [3, 30]: 657 nM
- EC50 [3, 31]: 406 nM
- EC50 ([3]; no second agent (control of Table 5.4.1)): 623 nM
- EC50 ([3]; no second agent (control of Table 5.4.2)): 282 nM
- EC50 ([3]; no second agent (control of Table 5.4.3)): 633 nM
- combination index (C.I) [3, 23]: 0.8 arbitrary units
- combination index (C.I) [3, 24]: 0.9 arbitrary units
- combination index (C.I) [3, 25]: 0.4 arbitrary units
- combination index (C.I) [3, 26]: 0.6 arbitrary units
- combination index (C.I) [3, 27]: 1.1 arbitrary units
- combination index (C.I) [3, 28]: 0.5 arbitrary units
- combination index (C.I) [3, 29]: 0.6 arbitrary units
- combination index (C.I) [3, 30]: 1.1 arbitrary units
- combination index (C.I) [3, 31]: 0.7 arbitrary units
- combination index (C.I.) [4, 32]: 1.0 arbitrary units
- combination index (C.I.) [4, 24]: 1.1 arbitrary units
- combination index (C.I.) [4, 33]: 0.9 arbitrary units
- combination index (C.I.) [4, 34]: 1.1 arbitrary units
- combination index (C.I.) [4, 35]: 0.9 arbitrary units
- combination index (C.I.) [4, 36]: 0.9 arbitrary units
- combination index (C.I.) [4, 37]: 0.9 arbitrary units
- EC50 [4, 32]: 2460 nM
- EC50 [4, 24]: 2540 nM
- EC50 [4, 33]: 2140 nM
- EC50 [4, 34]: 322 nM
- EC50 [4, 35]: 2350 nM
- EC50 [4, 36]: 2210 nM
- EC50 [4, 37]: 2260 nM
- EC50 ([4]; no second agent (control of Table 5.1.1)): 2590 nM
- EC50 ([4]; no second agent (control of Table 5.1.2)): 305 nM
- EC50 ([4]; no second agent (control of Table 5.1.3)): 2360 nM
